These results are taken from patent US6749850B1, “Methods, compositions and kits for promoting recovery from damage to the central nervous system” (The General Hospital Corporation, priority 1999, dated 2004).

The subject of experiment [1] is rat stroke model (focal cerebral infarction, middle cerebral artery electrocoagulation). In words: Example 1: sensorimotor behavioural tests after intracisternal treatment in rat stroke model. The experiment is classed as in vivo. On the procedure: In this example, fetal mouse neural stem cells (NSC) with or without basic fibroblast growth factor (bFGF) were administered intracisternally in a model of stroke recovery in rats. Male Sprague-Dawley rats, 300-350 grams, were handled for one week before surgery. They received an antibiotic, cefazolin sodium (40 mg/kg, i.p.), one day before stroke surgery. On the day of stroke surgery, animals were anesthetized by 2% halothane in a […]/oxygen mixture (2:1). Focal cerebral infarction, (stroke) was performed by proximal electrocoagulation of the middle cerebral artery, as described previously (Kawamata et al. (1999) Exp. Neurol. 158, 89-96; Tamura et al. (1981) J. Cereb. Blood Flow Metab. 1, 53-60). […] This technique produces a robust and reproducible infarct, or region of cell death, in the dorsolateral cerebral cortex and underlying striatum. Animals received another injection of cefazolin sodium (40 mg/kg, i.p.) immediately after surgery. They were then allowed to awaken from anesthesia.
Twenty-four hours after stroke surgery, animals received an intracisternal injection of either: (1) vehicle, (2) NSC (10^6 cells), (3) bFGF (0.5 μg), or (4) NSC+bFGF. Intracisternal injection in 50 μl total volume was done through percutaneous injection into the cisterna magna under halothane anesthesia. This same procedure was repeated two days later so that animals received treatment on days 1 and 3 following stroke. Cyclosporin, an immunosuppressant, was administered at 10 mg/kg, i.p. for the duration of the experiment.
The cerebral infarcts produced by the procedure cause sensorimotor dysfunction of the contralateral hindlimb and forelimb. For the next month following stroke, a number of neurological tests were done to assess sensorimotor function of the contralateral limbs. These tests include both the forelimb and hindlimb placing tests which test the animal's ability to place the limb on a tabletop in response to visual, tactile, proprioceptive, and whisker stimulation. […]

Experiment [2] has the same test system. Put plainly: Example 2: behavioural tests after intracerebral NSC and intracisternal bFGF in rat stroke model. It is filed as in vivo. The following applies: single administration one day after stroke. As to the method: In a second experiment, NSC were injected directly into the brain into tissue surrounding focal strokes. bFGF was injected intracisternally, as before. In this experiment only one administration of NSC or bFGF was performed at one day after stroke.
In this experiment, animals were handled for one week before surgery. In addition, they were trained on an additional test, the paw reaching test (see below) for 10 days before surgery. As before, they received cefazolin sodium (40 mg/kg, i.p.) before surgery. On the day of surgery, electrocoagulation of the proximal middle cerebral artery was done, as described previously (Kawamata et al. (1996) J. Cereb. Blood Flow Metab. 16, 542-547; Kawamata et al. (1997) Proc. Nat. Acad Sci. 94, 8179-8184; Kawamata et al. (1999) Exp. Neurol. 158, 89-96). They received another injection of cefazolin sodium, 40 mg/kg, i.p. after surgery.
At one day after stroke, animals received either: (1) vehicle injection into periinfarct tissue, and vehicle injection into the cisterna magna, (2) NSC (10^6 cells) into periinfarct tissue and vehicle into the cisterna magna, (3) vehicle into periinfarct tissue and bFGF (0.5 μg) into the cisterna magna or (4) the combination NSC (10^6 cells) into periinfarct tissue and bFGF (0.5 μg) into the cisterna magna.
These injections were done with a volume of 25 μl each under 2% halothane anesthesia. […]

A further experiment deals with animal models of stroke. The following applies: administered starting a day or more after stroke; cited from earlier work.
Another experiment deals with rat stroke model. As to conditions: BDNF administered conjointly with bone marrow cells; cited from earlier work.

Regarding “bFGF: basic fibroblast growth factor, a protein that supports survival and axonal outgrowth from neurons”, in experiment [1] (intracisternal on days 1 and 3 after stroke, NSC 10^6 cells, bFGF 0.5 μg, compared to placebo, FIGS. 1A-1B), the “recovery on limb placing tests (forelimb and hindlimb)” value is reported as “significantly enhanced recovery compared to placebo”. In addition, the body swing test result in experiment [1] (intracisternal on days 1 and 3 after stroke, compared to placebo, FIG. 1C) was “No differences”. The “sensorimotor recovery of the contralateral limbs (summary)” value in experiment [1] (intracisternal starting one day after stroke) is on record as “significantly enhance sensorimotor recovery”. Moreover, in experiment [2], the “behavioral outcome overall (summary of tests)” value is reported as “improved behavioral outcome on some tests”. The “recovery on forelimb and hindlimb placing tests” value in experiment [2] (NSC 10^6 cells periinfarct, bFGF 0.5 μg cisterna magna, compared to placebo, FIGS. 2A-2B) is reported as “superiority in recovery”. In addition, in the experiment with animal models of stroke, the “recovery on tests of sensorimotor function of the impaired limbs” value is “recover more quickly and to a greater extent”.

B1: BDNF: polypeptide growth factor, administered conjointly with bone marrow cells in a cited study (Chen et al. 2000) (protein, UniProt P23560 19-247, looked up)
Neurotrophic factor BDNF …: APMKEANIRGQGGLAYPGVRTHGTLESVNGPKAGSRGLTSLADTFEHVIEELLDEDQKVRPNEENNKDADLYTSRVMLSSQVPLEPPLLFLLEEYKNYLDAANMSMRVRRHSDPARRGELSVCDSISEWVTAADKKTAVDMSGGTVTVLEKVPVSKGQLKQYFYETKCNPMGYTKEGCRGIDKRHWNSQCRTTQSYVRALTMDSKKRIGWRFIRIDTSCVCTLTIKRGR
In the case of B1, in the experiment with rat stroke model, the “recovery in a rat stroke model” value is reported as “improve recovery”.
